In patent publication US10214502B2, “Method of inhibiting apolipoprotein-E expression while increasing expression of at least one of LDL-receptor protein or AbcA1 protein comprising administering a small compound” (California State University, Fresno, priority 2016, dated 2019):
“Also recorded” adds a separate entry of the source.

Experiments:
apoE3 = experiment: ELISA of apoE3 levels in conditioned media of compound-treated mouse cortical astrocyte cells; format: cell-based; conditions: for ApoE3 Levels in Cell Media, Average of Three Tests / ApoE3 Levels in Cell Media, Test 1 / ApoE3 Levels in Cell Media, Test 2 / ApoE3 Levels in Cell Media, Test 3: 10 μM compound, 24 hours, normalized to cell protein, relative to DMSO treated cells
Protocol: ApoE inhibition can be readily determined by any one of several assays and techniques known to those of ordinary skill in the art, including the enzyme-linked immunosorbant assay (ELISA). In the experimental results shown in Table 2 and FIG. 5, the ELISA assay was carried out on cortical astrocyte cells from mice. Astrocyte cells produce apoE, LDLR and AbcA1 proteins.
The experiments involved treating mouse cortical astrocyte cells with the claimed compounds at 10 μM concentration for an incubation time of 24 hrs. DMSO solvent was used as a negative control, because the compounds were dissolved in DMSO when applied to the cells.
The ELISA technique involves immobilizing an apoE-specific capture antibody to a 96-well plate, addition of sample (conditioned medium from mouse cortical astrocyte cells treated with the compound for 24 hours), and detection of the bound apoE using a second apoE-specific biotinylated antibody and streptavidin-HRP.
The Mabtech ELISA kit detects the presence of the three apoE isoforms: apoE2, apoE3, and apoE4.
To obtain the data shown in Table 2 and FIG. 5, the mouse cortical astrocyte cells were maintained in DMEM medium (Invitrogen) supplemented with 10 mM HEPES, 1 mM sodium pyruvate, 4.5 g/L glucose, 1% penicillin/streptomycin, and 10% fetal bovine growth serum (Invitrogen) at 37° C., with 5% CO2.
The cells (6×10^4 cells/24-well plate) were grown for 1 day in RPMI, followed by a 24 hour equilibration in serum-free Opti-MEM (Life Technologies). Treatments were carried out in triplicate with […] of fresh Opti-MEM containing 10 μM of compound or vehicle (0.1% DMSO) for 24 hours. […] ApoE concentration in the sample was calculated based on a standard curve derived using known amounts of purified apoE (from Biodesign).
The protein levels in the cells in the 24-well plates were measured using BCA Protein Assay Kit (from Pierce) and used to normalize the data. […] Sample apoE3 concentrations were represented relative to the DMSO treated cells.
The bars in FIG. 5 reflect the respective mean level apoE3 in the media for each compound with an indication of one […].

LDLR = experiment: SDS-PAGE/Western blot of LDLR expression in E3 astrocyte cells; format: cell-based, mouse; conditions: 10 μM, 24 hrs, Western blot, FIGS. 6 and 7
Protocol: Experiments were set up to test whether the claimed compounds increase LDLR expression in cortical astrocyte cells. The experiments involved treating mouse cortical astrocyte cells (E3 astrocyte cells) with the claimed compounds at 10 μM concentration for an incubation time of 24 hrs. DMSO solvent was used as a negative control, because the compounds were dissolved in DMSO when applied to the cells.
(§1) Western blot protocol and analysis was used to determine the LDLR levels in the E3 astrocyte cells. The western blot, otherwise known as a protein immunoblot, is a widely used analytical technique used to detect specific proteins in a cell culture or tissue sample. It uses gel electrophoresis to separate proteins by 3-D structure or denatured proteins by the length of the polypeptide. The proteins are then transferred to a membrane (typically nitrocellulose or PVDF), where they are stained with antibodies specific to the target protein. […] FIGS. 6 and 7 show gel images showing the effects the claimed compounds have on the target proteins. The protein bands show the presence and amount of each target protein present in the media from treated cells (compound numbers shown in the column headers).
(§2) In this case, after the 24-hour culture period, the treated cell media from cells treated with each respective compound were run by electrophoresis on polyacrylamide gel containing sodium dodecyl sulfate (SDS). The proteins from the SDS-PAGE process were then transferred to a nitrocellulose […] and stained.
(§3) FIGS. 6 and 7 show the presence of the following proteins in mouse E3 astrocyte cells: AbcA1, LDLR, ApoE3, and GAPDH. The GAPDH protein serves as the loading control protein for the western blot analysis. For each of the claimed compounds, FIGS. 6 and 7 show three samples run to determine the presence and amount of each indicated protein. The three samples for each treatment compound are indicated by the line under the compound number—the line stretches across three columns of protein bands.
(§4) The E3 astrocyte cells (1.6×10^4 cells/96-well plate) were grown for 1 day in RPMI, followed by a 24 hour equilibration in serum-free Opti-MEM (Life Technologies). Treatments were carried out in triplicate with […] of fresh Opti-MEM containing 10 μM of compound or vehicle (0.1% DMSO) for 24 hours. After the incubation time, the cellular media was collected as samples.
(§5) The collected samples were prepared for SDS-PAGE and western blot analysis by centrifuging and then extracting the protein by TCA-precipitation. The extracted protein was then resuspended in a Tris buffer.
(§6) After incubation and collection, the samples were run on a SDS-polyacrylamide gel (10% SDS). The SDS-polyacrylamide gel comprises the following:
(§7) Each sample was prepared to run on the SDS-polyacrylamide gel. About 20 μL of each sample was prepared to be run in the gel. The samples were prepared comprising the following:
(§8) The SDS-PAGE process was run with SDS-PAGE running buffer (Tris base, glycine, and 10% SDS) at 150 V until the dye front reached the bottom of the gel.
(§9) For the western blot portion of the analysis, the separated protein bands in the gel are then transferred to a nitrocellulose membrane by methods well known in the art. Following the western blot transfer, the blot is rinsed several times with dH2O to remove the salts. After blocking unreacted sites on the nitrocellulose membrane, all protein bands are stained with 0.5% Ponceau S (0.5 g Ponceau S, 1 ml Glacial HAc, 99 ml dH2O) and the target protein antibody.
(§10) The antibodies used for staining AbcA1 were obtained from Novus (NB100-2068). The antibodies used for staining LDLR were obtained from MBL International (JM-3839). The antibodies used for staining intracellular apoE were obtained from Meridian Life Science (K74180B). The antibodies used for staining GAPDH were obtained from Santa Cruz (sc-25778).

AbcA1 = experiment: SDS-PAGE/Western blot of AbcA1 expression in E3 astrocyte cells; format: cell-based, mouse; conditions: 10 μM, 24 hrs, Western blot, FIGS. 6 and 7
Source text: as §1, §2, §3
AbcA1 protein plays a key role in regulating cholesterol in biological systems and therefore affects amyloid beta plaque formation. The goal of the biological screen (results shown in FIGS. 6 and 7) was to find compounds that prevent amyloid beta (Aβ) plaque formation, one of the deleterious causes of Alzheimer's Disease.
as §4, §5, §6, §7, §8, §9, §10

| Structure (SMILES) | ApoE3 Levels in Cell Media, Average of Three Tests (apoE3) | ApoE3 Levels in Cell Media, Test 1 (apoE3) | ApoE3 Levels in Cell Media, Test 2 (apoE3) | ApoE3 Levels in Cell Media, Test 3 (apoE3) | LDLR expression (amount of LDLR protein) compared to the DMSO control (LDLR) | AbcA1 expression compared to the DMSO control (AbcA1) | apoE (apoE3) expression compared to the control DMSO, in words (apoE3; 10 μM, 24 hrs, ELISA of media) |
| --- | --- | --- | --- | --- | --- | --- | --- |
| CCC(C)NC(=O)c1ccc2ccccc2c1 (centres unmarked) [Compound 88, naphthalene-2-carboxylic acid sec-butylamide] | 100.678 % of the DMSO control | 104.1856 % of the DMSO control | 95.94 % of the DMSO control | 101.9038 % of the DMSO control | increase |  |  |
| CC(C)CNC(=O)c1ccc2ccccc2c1 [Compound 89] | 129.8502 % of the DMSO control | 110.4906 % of the DMSO control | 131.1414 % of the DMSO control | 147.9187 % of the DMSO control | increase |  |  |
| O=S(=O)(c1ccc2ccccc2c1)N1CCOCC1 [Compound 95] | 96.13 % of the DMSO control | 86.87 % of the DMSO control | 92.02 % of the DMSO control | 109.5 % of the DMSO control | increase |  |  |
| O=S(=O)(c1ccc2ccccc2c1)N1CCCC1 [Compound 96] | 118.6531 % of the DMSO control | 104.9618 % of the DMSO control | 132.594 % of the DMSO control | 118.4035 % of the DMSO control | increase |  |  |
| O=S(=O)(c1ccc2ccccc2c1)N1CCCCC1 [Compound 97] | 86.86 % of the DMSO control | 90.22 % of the DMSO control | 90.28 % of the DMSO control | 80.08 % of the DMSO control | increase |  |  |
| O=C(Nc1ccccc1)c1ccc2ccccc2c1 [Compound 98] | 76.25 % of the DMSO control | 74.22 % of the DMSO control | 79 % of the DMSO control | 75.5362 % of the DMSO control |  | decrease |  |
| O=S(=O)(Nc1ccc(Br)cc1)c1ccc2ccccc2c1 [Compound 103] | 109.1222 % of the DMSO control | 84.78 % of the DMSO control | 113.1319 % of the DMSO control | 129.4577 % of the DMSO control | increased | increase |  |
| O=S(=O)(NCc1ccccc1)c1cccc2ccccc12 [Compound 125] | 88.78 % of the DMSO control | 82.44 % of the DMSO control | 91.39 % of the DMSO control | 92.51 % of the DMSO control | increased | increase |  |
| CCN(CC)S(=O)(=O)c1ccc2ccccc2c1 [Compound 129] | 81.14 % of the DMSO control | 80.4063 % of the DMSO control | 82.82 % of the DMSO control | 80.19 % of the DMSO control |  | decrease |  |
| CC(C)CNS(=O)(=O)c1ccc(-c2ccccc2)cc1 [Compound 133] | 73.18 % of the DMSO control | 81.61 % of the DMSO control | 72.54 % of the DMSO control | 65.4 % of the DMSO control |  | decrease |  |
| O=S(=O)(c1ccc(-c2ccccc2)cc1)N1CCOCC1 [Compound 134] | 84.75 % of the DMSO control | 81.07 % of the DMSO control | 90.3 % of the DMSO control | 82.89 % of the DMSO control | increased | increase |  |
| O=S(=O)(NC1CCCCC1)c1ccc(-c2ccccc2)cc1 [Compound 136] | 89.73 % of the DMSO control | 89.58 % of the DMSO control | 91.2 % of the DMSO control | 88.41 % of the DMSO control | increase |  |  |
| CC(NS(=O)(=O)c1ccc(-c2ccccc2)cc1)c1ccccc1 (centres unmarked) [Compound 137] | 88.63 % of the DMSO control | 79.41 % of the DMSO control | 86.65 % of the DMSO control | 99.83 % of the DMSO control | increase |  |  |
| CCCCN(CCCC)Cc1ccc2ccccc2c1 [Compound 139] | 74.779 % of the DMSO control | 67.21 % of the DMSO control | 81.69 % of the DMSO control | 75.44 % of the DMSO control | increased | decreases AbcA1 expression significantly; also recorded: decrease |  |
| c1ccc(C(c2ccccc2)(c2ccc3ccccc3c2)N2CCOCC2)cc1 [Triarylmethyl Amine Compound No. 38, reference compound] | 79.07 % of the DMSO control | 76.4862 % of the DMSO control | 92.35 % of the DMSO control | 68.38 % of the DMSO control |  | significantly decrease or inhibit; also recorded: decrease | effectively decrease |
